The assay deals with T1, hROMK (hKir1.1) (Homo sapiens, UniProt P48048).
T1 construct: expressed in transfected cells
T1 sequence (P48048 1-391): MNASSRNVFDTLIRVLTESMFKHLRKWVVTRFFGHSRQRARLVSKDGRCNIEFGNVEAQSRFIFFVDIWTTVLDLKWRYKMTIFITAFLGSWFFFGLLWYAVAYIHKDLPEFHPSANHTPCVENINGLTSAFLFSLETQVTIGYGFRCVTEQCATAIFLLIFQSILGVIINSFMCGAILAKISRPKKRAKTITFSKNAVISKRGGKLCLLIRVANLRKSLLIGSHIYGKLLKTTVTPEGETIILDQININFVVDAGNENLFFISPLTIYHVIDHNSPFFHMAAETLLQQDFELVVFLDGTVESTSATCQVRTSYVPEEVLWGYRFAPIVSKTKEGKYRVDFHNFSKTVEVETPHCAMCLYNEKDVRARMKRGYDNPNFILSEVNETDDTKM
Nature of the assay: Thallium Flux Assay (ROMK channel functional thallium flux assay). It counts as cell-based. As to conditions: HEK293 cells stably expressing hROMK (hKir1.1); FluxOR thallium flux, FLIPR-Tetra, 30 min compound incubation; read-out: ROMK TI IC50. On the procedure:
The following Thallium Flux Assay was performed on each of the final product compounds in the Examples.
HEK293 cells stably expressing hROMK (hKir1.1) were grown at 37° C. in a 10% CO2 humidified incubator in complete growth media: Dulbecco's Modified Eagle Medium supplemented with non-essential amino acids, Penicillin/Streptomycin/Glutamine, G418 and FBS. At >80% confluency, the media was aspirated from the flask and rinsed with 10 mL calcium/magnesium-free PBS. […] To dislodge the cell, the side of the flask was gently banged with one's hand. The cells completely titrated and then the cells were transferred to 25 mL complete media, centrifuged at 1,500 rpm for 6 min followed by resuspension in complete growth media and determine cell concentration. […] Under ideal growth conditions and appropriate tissue culture practices, this cell line is stable for 40-45 passages.
• FluxOR™ Reagent (Component A) • FluxOR™ Assay Buffer (Component B)—10× Concentrate • PowerLoad™ Concentrate (Component C)—100× Concentrate • Probenecid (Component D)—Lyophilized sample is kept at −20° C. Water soluble, 100× after solubilization in 1 mL water. […] Store at 4° C. • Thallium sulfate (Tl2SO4) Concentrate (Component G)—50 mM in water. Store at 4° C. • DMSO (dimethyl sulfoxide, Component H)—1 mL (100%)
Can be stored at room temperature • Stimulant Buffer (prepared at 5× final concentration in 1×FluxOR™ Chloride-Free Buffer): 7.5 mM thallium sulfate and 0.75 mM potassium sulfate (to give a final assay concentration of 3 mM Thallium/0.3 mM potassium). Store at 4° C. when not in use. If kept sterile, this solution is good for months.
The ROMK channel functional thallium flux assay was performed in 384 wells, using the FLIPR-Tetra instrument. HEK-hKir1.1 cells were seeded in Poly-D-Lysine microplates and kept in a 37° C.-10% CO2 incubator overnight. On the day of the experiment, the growth media was replaced with the FluxOR™ reagent loading buffer and incubated, protected from light, at ambient temperature (23-25° C.) for 90 min. The loading buffer was replaced with assay buffer±test compound followed by 30 min incubation at ambient temperature, where the thallium/potassium stimulant was added to the microplate.
1. Seed HEK-hKir1.1 cells (50 μl at 20,000 cells/well) in 384-well PDL coated Microplates 2. Allow cells to adhere overnight in humidified 37° C./10% CO2 incubator 3. Completely remove cell growth media from microplate and replace with 25 μl loading buffer 4. Incubate Microplate at room temperature, protected form light, for 90 min 5. Remove loading buffer and replace with 25 μl 1× Assay Buffer±test compound. 6. Incubate microplate at room temperature, protected from light, for 30 min 7. […] Excitation=400 nm, Emission=460 & 580 nm. Collect data for ˜10 min.
The fluorescence intensity of wells containing 3 μM of a standard control ROMK inhibitor of the present invention was used to define the ROMK-sensitive component of thallium flux. Fluorescence in the presence of test compounds was normalized to control values to provide % fluorescence change.

Usually IC50 stands for the concentration needed to halve the response being measured.

As for `Cc1c([C@@H](O)CN2CCC3(CC2)CCN(c2cncc(N)n2)CC3)ccc2c1COC2=O` [Example 129, (R)-5-(2-(9-(6-aminopyrazin-2-yl)-3,9-diazaspiro[5.5]undecan-3-yl)-1-hydroxyethyl)-4-methylisobenzofuran-1(3H)-one], the IC50 was found to be 68.3 nM.
Regarding `Cc1c([C@@H](O)CN2CCC3(CC2)CCN(c2ccc(C(F)F)nc2)C3=O)ccc2c1COC2=O` [Example 33, (R)-2-(6-(difluoromethyl)pyridin-3-yl)-8-(2-hydroxy-2-(4-methyl-1-oxo-1,3-dihydroisobenzofuran-5-yl)ethyl)-2,8-diazaspiro[4.5]decan-1-one], the IC50 worked out at 63.1 nM.
For `COc1cc(N2CCC3(CCN(C[C@H](O)c4ccc5c(c4C)COC5=O)CC3)C2)nc(OC)n1` [Example 10, (R)-5-(2-(2-(2,6-dimethoxypyrimidin-4-yl)-2,8-diazaspiro[4.5]decan-8-yl)-1-hydroxyethyl)-4-methylisobenzofuran-1(3H)-one], the IC50 came to 725 nM.
With `Cc1cc2c(cc1[C@H](O)CN1CCC3(CC1)CCN(c1ccns1)C3=O)COC2=O` [Example 69, (S)-8-(2-hydroxy-2-(6-methyl-1-oxo-1,3-dihydroisobenzofuran-5-yl)ethyl)-2-(isothiazol-5-yl)-2,8-diazaspiro[4.5]decan-1-one], the IC50 turned out to be 673 nM.
The result for `Cc1c([C@@H](O)CN2CCC3(CC2)CCN(c2ccc(Cl)nn2)CC3)ccc2c1COC2=O` [Example 123, (R)-5-(2-(9-(6-chloropyridazin-3-yl)-3,9-diazaspiro[5.5]undecan-3-yl)-1-hydroxyethyl)-4-methylisobenzofuran-1(3H)-one] reads 8.45 nM; that for `COc1nccc(N2CCC3(CCN(C[C@H](O)c4ccc5c(c4C)COC5=O)CC3)C2)n1` [Example 14, (R)-5-(1-hydroxy-2-(2-(2-methoxypyrimidin-4-yl)-2,8-diazaspiro[4.5]decan-8-yl)ethyl)-4-methylisobenzofuran-1(3H)-one], 420 nM; that for `Cc1c([C@@H](O)CN2CCC3(CC2)CCN(c2ccc(OC(F)F)nc2)C3=O)ccc2c1COC2=O` [Example 76, (R)-2-(6-(difluoromethoxy)pyridin-3-yl)-8-(2-hydroxy-2-(4-methyl-1-oxo-1,3-dihydroisobenzofuran-5-yl)ethyl)-2,8-diazaspiro[4.5]decan-1-one], 320 nM.
On to `Cc1c([C@@H](O)CN2CCC3(CC2)CCN(c2cncc(C(=O)O)n2)CC3)ccc2c1COC2=O` [Example 121, (R)-6-(9-(2-hydroxy-2-(4-methyl-1-oxo-1,3-dihydroisobenzofuran-5-yl)ethyl)-3,9-diazaspiro[5.5]undecan-3-yl)pyrazine-2-carboxylic acid], for which the IC50 turned out to be 314 nM.
On to `Cc1c([C@@H](O)CN2CCC3(CC2)OCCN(c2ccc(=O)n(C)n2)C3=O)ccc2c1COC2=O` [Example 102, (R)-9-(2-hydroxy-2-(4-methyl-1-oxo-1,3-dihydroisobenzofuran-5-yl)ethyl)-4-(1-methyl-6-oxo-1,6-dihydropyridazin-3-yl)-1-oxa-4,9-diazaspiro[5.5]undecan-5-one], for which the IC50 was found to be 349 nM.
In the case of `Cc1c([C@@H](O)CN2CCC3(CC2)CCN(c2ccc(C(F)(F)F)cn2)CC3)ccc2c1COC2=O` [Example 115, (R)-5-(1-hydroxy-2-(9-(5-(trifluoromethyl)pyridin-2-yl)-3,9-diazaspiro[5.5]undecan-3-yl)ethyl)-4-methylisobenzofuran-1(3H)-one], the IC50 turned out to be 225 nM.
`Cc1c([C@@H](O)CN2CCC3(CC2)CCN(c2ccncn2)C3=O)ccc2c1COC2=O` [Example 67, (R)-8-(2-hydroxy-2-(4-methyl-1-oxo-1,3-dihydroisobenzofuran-5-yl)ethyl)-2-(pyrimidin-4-yl)-2,8-diazaspiro[4.5]decan-1-one]: the IC50 was 434 nM.
For `COc1nsc(N2CCOC3(CCN(C[C@H](O)c4ccc5c(c4C)COC5=O)CC3)C2=O)n1` [Example 27, (R)-9-(2-hydroxy-2-(4-methyl-1-oxo-1,3-dihydroisobenzofuran-5-yl)ethyl)-4-(3-methoxy-1,2,4-thiadiazol-5-yl)-1-oxa-4,9-diazaspiro[5.5]undecan-5-one], the IC50 was determined as 25 nM.
For `CCn1nc(N2CCC3(CCN(C[C@H](O)c4ccc5c(c4C)COC5=O)CC3)C2=O)ccc1=O` [Example 51, (R)-2-(1-ethyl-6-oxo-1,6-dihydropyridazin-3-yl)-8-(2-hydroxy-2-(4-methyl-1-oxo-1,3-dihydroisobenzofuran-5-yl)ethyl)-2,8-diazaspiro[4.5]decan-1-one], the IC50 was 77 nM.
The result for `Cc1cc2c(cc1[C@@H](O)CN1CCC3(CC1)CCN(c1ccns1)C3=O)COC2=O` [Example 68, (R)-8-(2-hydroxy-2-(6-methyl-1-oxo-1,3-dihydroisobenzofuran-5-yl)ethyl)-2-(isothiazol-5-yl)-2,8-diazaspiro[4.5]decan-1-one] reads 221 nM; that for `Cc1c([C@@H](O)CN2CCC3(CC2)CC(=O)N(c2ccns2)C3)ccc2c1COC2=O` [Example 61, (R)-8-(2-hydroxy-2-(4-methyl-1-oxo-1,3-dihydroisobenzofuran-5-yl)ethyl)-2-(isothiazol-5-yl)-2,8-diazaspiro[4.5]decan-3-one], 547 nM; that for `Cc1c([C@@H](O)CN2CCC3(CC2)CCN(c2cc(C)c(=O)n(C)n2)C3=O)ccc2c1COC2=O` [Example 52, (R)-2-(1,5-dimethyl-6-oxo-1,6-dihydropyridazin-3-yl)-8-(2-hydroxy-2-(4-methyl-1-oxo-1,3-dihydroisobenzofuran-5-yl)ethyl)-2,8-diazaspiro[4.5]decan-1-one], 427 nM.
`COc1cc(N2CCC3(CCN(C[C@H](O)c4ccc5c(c4C)COC5=O)CC3)C2=O)nc(OC)n1` [Example 42, (R)-2-(2,6-dimethoxypyrimidin-4-yl)-8-(2-hydroxy-2-(4-methyl-1-oxo-1,3-dihydroisobenzofuran-5-yl)ethyl)-2,8-diazaspiro[4.5]decan-1-one]: the IC50 turned out to be 842 nM.
Turning to `[2H]C([2H])(N1CCC2(CCN(c3ccc(=O)n(C)n3)C2=O)CC1)[C@@]([2H])(O)c1ccc2c(c1C)COC2=O` (single isomer, unassigned) [Example 59], the IC50 was determined as 462 nM.
As for `[2H]C([2H])([2H])Oc1nccc(N2CCC3(CCN(C[C@H](O)c4ccc5c(c4C)COC5=O)CC3)C2=O)n1` [Example 39, (R)-8-(2-hydroxy-2-(4-methyl-1-oxo-1,3-dihydroisobenzofuran-5-yl)ethyl)-2-(2-methoxypyrimidin-4-yl)-2,8-diazaspiro[4.5]decan-1-one (methoxy-d3)], the figure is 38.8 nM.
`Cc1c([C@@H](O)[C@@H](C)N2CCC3(CCN(c4ccc(=O)n(C)n4)C3=O)CC2)ccc2c1COC2=O` [Example 108, 8-((1R,2R)-1-hydroxy-1-(4-methyl-1-oxo-1,3-dihydroisobenzofuran-5-yl)propan-2-yl)-2-(1-methyl-6-oxo-1,6-dihydropyridazin-3-yl)-2,8-diazaspiro[4.5]decan-1-one]: the half-maximal inhibitory concentration (IC50) was determined as 56 nM.
On to `O[C@@H](CN1CCC2(CC1)CCN(c1cc(Cl)cnn1)CC2)c1ccc(-n2cnnn2)nc1` [Example 138, (R)-1-(6-(1H-tetrazol-1-yl)pyridin-3-yl)-2-(9-(5-chloropyridazin-3-yl)-3,9-diazaspiro[5.5]undecan-3-yl)ethanol], for which the half-inhibitory concentration (IC50) turned out to be 387 nM.
For `Cc1c([C@@H](O)CN2CCC3(CC2)CCN(c2ncns2)C3)ccc2c1COC2=O` [Example 8, (R)-5-(2-(2-(1,2,4-thiadiazol-5-yl)-2,8-diazaspiro[4.5]decan-8-yl)-1-hydroxyethyl)-4-methylisobenzofuran-1(3H)-one], the IC50 amounted to 526 nM.

Source of the values: patent publication US20170275298A1, “INHIBITORS OF THE RENAL OUTER MEDULLARY POTASSIUM CHANNEL” (Merck Sharp & Dohme Corp., priority 2014, published 2017).
